How the values were obtained:
KRAS G12D = KRAS G12D (Homo sapiens, UniProt P01116, G12D); assay: GDP-GTP exchange assay, KRAS G12D (bodipy-GDP/GppNHp, SOS1); type: biochemical; details: bodipy-loaded KRAS G12D 2.5 nM, 4 hours pre-incubation with inhibitor, SOS1 150 nM, GppNHp 500 uM; read-out: G12D_exchange (KRAS_G12D exchange assay IC50)
Experimental: (§1) The inhibitor potency of the exemplified compounds was determined in a fluorescence based guanine nucleotide exchange assay, which measures the exchange of bodipy-GDP (fluorescently labeled GDP) for GppNHp (Non-hydrolyzable GTP analog) to generate the active state of KRAS in the presence of SOS1 (guanine nucleotide exchange factor). Inhibitors were serially diluted in DMSO and a volume of 0.1 μL was transferred to the wells of a black low volume 384-well plate. Five μL/well volume of bodipy-loaded KRAS G12D or G12V diluted to a final concentration of 2.5 nM in assay buffer (25 mM Hepes pH 7.5, 50 mM NaCl, 10 mM MgCl2 and 0.01% Brij-35) was added to the plate and pre-incubated with inhibitor for 4 hours (G12D) or 3 hours (G12V) at ambient temperature. A cyclic peptide described to selectively bind G12D mutant (Sakamoto et al., BBRC 484.3 (2017), 605-611) or internal compounds with confirmed binding were used as positive controls in the assay plates. The exchange was initiated by the addition of a 5 μL/well volume containing 1 mM GppNHp and 300 nM SOS1 in assay buffer. The 10 μL/well reaction concentration of the bodipy-loaded KRAS G12D or G12V, GppNHp, and SOS1 were 2.5 nM, 500 uM, and 150 nM, respectively.
(§2) Either GraphPad prism or XLfit was used to analyze the data. The IC50 values were derived by fitting the data to a four parameter logistic equation producing a sigmoidal dose-response curve with a variable Hill coefficient. Prism equation: Y=Bottom+(Top−Bottom)/(1+10^((LogIC50-X)*Hill slope)); XLfit equation: Y=(A+((B−A)/(1+((X/C)^D)))) where X is the logarithm of inhibitor concentration and Y is the response.

KRAS G12V = KRAS G12V (Homo sapiens, UniProt P01116, G12V); assay: GDP-GTP exchange assay, KRAS G12V (bodipy-GDP/GppNHp, SOS1); type: biochemical; details: bodipy-loaded KRAS G12V 2.5 nM, 3 hours pre-incubation with inhibitor, SOS1 150 nM, GppNHp 500 uM; read-out: G12V_exchange (KRAS_G12V exchange assay IC50)
Sequence of KRAS G12V (P01116 1-188 isoform P01116-2 G12V): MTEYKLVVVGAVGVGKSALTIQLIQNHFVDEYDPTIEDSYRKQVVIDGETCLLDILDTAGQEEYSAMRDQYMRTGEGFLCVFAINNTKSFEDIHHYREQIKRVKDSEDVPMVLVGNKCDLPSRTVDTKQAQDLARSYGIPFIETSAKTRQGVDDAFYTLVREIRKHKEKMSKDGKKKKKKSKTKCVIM
Experimental: as §1, §2

Sequence of KRAS G12D (P01116 1-188 isoform P01116-2 G12D): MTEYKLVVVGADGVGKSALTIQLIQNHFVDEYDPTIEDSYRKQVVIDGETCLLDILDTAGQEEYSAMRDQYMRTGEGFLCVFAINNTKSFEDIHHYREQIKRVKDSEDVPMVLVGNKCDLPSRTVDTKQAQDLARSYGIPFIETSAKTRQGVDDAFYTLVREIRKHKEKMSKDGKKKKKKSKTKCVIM

Row | SMILES | IC50 (KRAS G12D) [nM] | IC50 (KRAS G12V) [nM]
1 | C[C@H](Oc1nc2c(F)c(-c3cc(O)cc4ccc(F)cc34)c(CCC#N)cc2c2c1NC(=O)CN2C1C2CNC1C2)[C@@H]1CCCN1C (single isomer, unassigned) [Example 4a] | 1000 to 5000 | 1000 to 5000
2 | C[C@H](Oc1nc2c(F)c(-c3cc(O)cc4ccc(F)cc34)c(CCC#N)cc2c2c1NC(=O)CN2C1C2CNC1C2)[C@@H]1CCCN1C (single isomer, unassigned) [Example 4b] | 100 to 1000 | 100 to 1000
3 | N#CCCc1cc2c3c(cnc2c(F)c1-c1cc(O)cc2ccccc12)N(c1ccccc1)C(=O)CN3[C@@H]1[C@@H]2CN[C@H]1C2 (relative stereo) [Example 17, 3-(1-((endo)-2-Azabicyclo[2.1.1]hexan-5-yl)-7-fluoro-8-(3-hydroxynaphthalen-1-yl)-3-oxo-4-phenyl-1,2,3,4-tetrahydropyrazino[2,3-c]quinolin-9-yl)propanenitrile] | 100 to 1000 | 100 to 1000
4 | Cn1cnc(-c2nc3c(F)c(-c4cc(O)cc5ccccc45)c(CCC#N)cc3c3c2NC(=O)CN3C2C3CNC2C3)c1 (single isomer, unassigned) [Example 7b, 3-(1-((endo)-2-Azabicyclo[2.1.1]hexan-5-yl)-7-fluoro-8-(3-hydroxynaphthalen-1-yl)-5-(1-methyl-1H-imidazol-4-yl)-3-oxo-1,2,3,4-tetrahydropyrazino[2,3-c]quinolin-9-yl)propanenitrile] | 100 to 1000 | 1000 to 5000
5 | C[C@@H](CN(C)C)Oc1nc2c(F)c(-c3cc(O)cc4ccccc34)c(CCC#N)cc2c2c1CCCN2C1C2CNC1C2 (single isomer, unassigned) [Example 16a] | 5000 to 10000 | 5000 to 10000
6 | CN1CCC[C@H]1COc1nc2c(F)c(-c3cc(O)cc4ccccc34)c(CCC#N)cc2c2c1CCCN2C1C2CNC1C2 (single isomer, unassigned) [Example 12a] | 1000 to 5000 | 5000 to 10000
7 | C[C@H](Oc1nc2c(F)c(-c3c[nH]c4ccccc34)c(CCC#N)cc2c2c1NC(=O)CN2C1C2CNC1C2)[C@@H]1CCCN1C (single isomer, unassigned) [Example 1b] | 100 to 1000 | 100 to 1000
8 | Cc1cc2c(nc(O[C@@H](C)[C@@H]3CCCN3C)c3c(=O)c(Nc4cnn(C)c4)cn([C@H]4[C@H]5CN[C@@H]4C5)c32)c(F)c1-c1cccc2c1C(C#N)CCC2 (single isomer, unassigned) [Example 26a] | ≤ 100 | ≤ 100
9 | CN(C)C1CN(c2nc3c(F)c(-c4cc(O)cc5ccccc45)c(CCC#N)cc3c3c2NC(=O)CN3C2C3CNC2C3)C1 (single isomer, unassigned) [Example 13b, 3-(1-((endo)-2-Azabicyclo[2.1.1]hexan-5-yl)-5-(3-(dimethylamino)azetidin-1-yl)-7-fluoro-8-(3-hydroxynaphthalen-1-yl)-3-oxo-1,2,3,4-tetrahydropyrazino[2,3-c]quinolin-9-yl)propanenitrile] | 100 to 1000 | 100 to 1000
10 | CC1Cc2c(OC[C@@H]3CCCN3C)nc3c(F)c(-c4cc(O)cc5ccccc45)c(CCC#N)cc3c2N(C2C3CNC2C3)C1 (single isomer, unassigned) [Example 14d] | 1000 to 5000 | 1000 to 5000
11 | C[C@H](Oc1nc2c(F)c(-c3cccc(Cl)c3Cl)c(CCC#N)cc2c2c1NC(=O)CN2C1C2CNC1C2)[C@@H]1CCCN1C (single isomer, unassigned) [Example 2c] | 100 to 1000 | 100 to 1000
12 | N#CCCc1cc2c3c(c(Cc4ccccc4)nc2c(F)c1-c1cc(O)cc2ccccc12)NC(=O)CN3C1C2CNC1C2 (single isomer, unassigned) [Example 8a, 3-(5-Benzyl-1-((endo)-2-azabicyclo[2.1.1]hexan-5-yl)-7-fluoro-8-(3-hydroxynaphthalen-1-yl)-3-oxo-1,2,3,4-tetrahydropyrazino[2,3-c]quinolin-9-yl)propanenitrile] | 100 to 1000 | 1000 to 5000
13 | N#CCCc1cc2c3c(cnc2c(F)c1-c1cc(O)cc2ccccc12)N(CCC1CCNCC1)C(=O)CN3C1C2CNC1C2 (single isomer, unassigned) [Example 18a, 3-(1-((endo)-2-Azabicyclo[2.1.1]hexan-5-yl)-7-fluoro-8-(3-hydroxynaphthalen-1-yl)-3-oxo-4-(2-(piperidin-4-yl)ethyl)-1,2,3,4-tetrahydropyrazino[2,3-c]quinolin-9-yl)propanenitrile] | ≤ 100 | 100 to 1000
14 | C[C@H](Oc1nc2c(F)c(-c3cccc4ccc(F)cc34)c(CCC#N)cc2c2c1NC(=O)CN2C1C2CNC1C2)[C@@H]1CCCN1C (single isomer, unassigned) [Example 3b] | 100 to 1000 | 100 to 1000
15 | N#CCCc1cc2c3c(cnc2c(F)c1-c1cc(O)cc2ccccc12)N(CC(N)=O)C(=O)CN3C1C2CNC1C2 (single isomer, unassigned) [Example 19a, 2-(1-((endo)-2-Azabicyclo[2.1.1]hexan-5-yl)-9-(2-cyanoethyl)-7-fluoro-8-(3-hydroxynaphthalen-1-yl)-3-oxo-2,3-dihydropyrazino[2,3-c]quinolin-4(1H)-yl)acetamide] | ≤ 100 | 100 to 1000
16 | N#CCCc1cc2c3c(c(OC[C@@]45CCCN4C[C@H](F)C5)nc2c(F)c1-c1cc(O)cc2ccccc12)NC(=O)CN3C1C2CNC1C2 (single isomer, unassigned) [Example 10c] | 100 to 1000 | 100 to 1000
17 | C[C@H](Oc1nc2c(F)c(-c3cccc(Cl)c3Cl)c(CCC#N)cc2c2c1c(=O)c(N1CCCC1=O)cn2[C@H]1[C@H]2CN[C@@H]1C2)[C@@H]1CCCN1C (single isomer, unassigned) [Example 25] | ≤ 100 | ≤ 100
18 | N#CCCc1cc2c3c(c(-c4ccc5cccnc5c4)nc2c(F)c1-c1cc(O)cc2ccccc12)NC(=O)CN3C1C2CNC1C2 (single isomer, unassigned) [Example 6b, 3-(1-((endo)-2-Azabicyclo[2.1.1]hexan-5-yl)-7-fluoro-8-(3-hydroxynaphthalen-1-yl)-3-oxo-5-(quinolin-7-yl)-1,2,3,4-tetrahydropyrazino[2,3-c]quinolin-9-yl)propanenitrile] | 1000 to 5000 | 1000 to 5000
19 | C[C@@H](CN(C)C)Oc1nc2c(F)c(-c3cc(O)cc4ccccc34)c(CCC#N)cc2c2c1NC(=O)CN2C1C2CNC1C2 (single isomer, unassigned) [Example 11b] | 5000 to 10000 | 5000 to 10000
20 | C[C@@H](CN(C)C)Oc1nc2c(F)c(-c3cc(O)cc4ccccc34)c(CCC#N)cc2c2c1NC(=O)CN2C1C2CNC1C2 (single isomer, unassigned) [Example 11d] | 100 to 1000 | 100 to 1000
21 | C[C@@H](CN(C)C)Oc1nc2c(F)c(-c3cc(O)cc4ccccc34)c(CCC#N)cc2c2c1NC(=O)CN2C1C2CNC1C2 (single isomer, unassigned) [Example 11a] | 5000 to 10000 | 5000 to 10000
22 | C[C@H](Oc1nc2c(F)c(-c3cccc(Cl)c3Cl)c(CCC#N)cc2c2c1NC(=O)CN2C1C2CNC1C2)[C@@H]1CCCN1C (single isomer, unassigned) [Example 2a] | 100 to 1000 | 100 to 1000
23 | CC1Cc2c(OC[C@@H]3CCCN3C)nc3c(F)c(-c4cc(O)cc5ccccc45)c(CCC#N)cc3c2N(C2C3CNC2C3)C1 (single isomer, unassigned) [Example 14c] | 1000 to 5000 | 5000 to 10000
24 | CNC(=O)c1ccc(-c2nc3c(F)c(-c4cc(O)cc5ccccc45)c(CCC#N)cc3c3c2NC(=O)CN3C2C3CNC2C3)cn1 (single isomer, unassigned) [Example 5b, 5-(1-((endo)-2-Azabicyclo[2.1.1]hexan-5-yl)-9-(2-cyanoethyl)-7-fluoro-8-(3-hydroxynaphthalen-1-yl)-3-oxo-1,2,3,4-tetrahydropyrazino[2,3-c]quinolin-5-yl)-N-methylpicolinamide] | 1000 to 5000 | 1000 to 5000
25 | C[C@H](Oc1nc2c(F)c(-c3cc(O)cc4ccccc34)c(CCC#N)cc2c2c1CCCN2C1C2CNC1C2)[C@@H]1CCCN1C (single isomer, unassigned) [Example 15a] | 1000 to 5000 | 1000 to 5000
26 | N#CCCc1cc2c3c(c(OC[C@@]45CCCN4C[C@H](F)C5)nc2c(F)c1-c1cc(O)cc2ccccc12)NC(=O)CN3C1C2CNC1C2 (single isomer, unassigned) [Example 10d] | 1000 to 5000 | 5000 to 10000
27 | N#CCCc1cc2c3c(c(Cc4ccccc4)nc2c(F)c1-c1cc(O)cc2ccccc12)NC(=O)CN3C1C2CNC1C2 (single isomer, unassigned) [Example 8b, 3-(5-Benzyl-1-((endo)-2-azabicyclo[2.1.1]hexan-5-yl)-7-fluoro-8-(3-hydroxynaphthalen-1-yl)-3-oxo-1,2,3,4-tetrahydropyrazino[2,3-c]quinolin-9-yl)propanenitrile] | 5000 to 10000 | 5000 to 10000

— US12030883B2, “Hetero-tricyclic compounds as inhibitors of KRAS” (Incyte Corporation, priority 2021, dated 2024)
